From patent publication US8304238B2, “Cell culture medium and immobilized preparation of cell adhesion protein or peptide” (Nat'l Institute for Environmental Studies, priority 2003, dated 2012)
“Also recorded” adds a separate entry of the source. Where no end group is shown, it is not given here.

B1: A4G82 (Thr-Leu-Phe-Leu-Ala-His-Gly-Arg-Leu-Val-Phe-Met) (peptide)
peptide: TLFLAHGRLVFM
B2: AG81.2 (Val-Lys-Thr-Glu-Tyr-Ile-Lys-Arg-Lys-Ala-Phe-Met) (peptide)
peptide: VKTEYIKRKAFM
B3: A3G72 (Lys-Pro-Arg-Leu-Gln-Phe-Ser-Leu-Asp-Ile-Gln-Thr) (peptide)
peptide: KPRLQFSLDIQT
B4: hA3G75 (Lys-Asn-Ser-Phe-Met-Ala-Leu-Tyr-Leu-Ser-Lys-Gly) (peptide)
peptide: KNSFMALYLSKG
B5: hA3G83 (Gly-Asn-Ser-Thr-Ile-Ser-Ile-Arg-Ala-Pro-Val-Tyr) (peptide)
peptide: GNSTISIRAPVY
B6: A5G77 (Leu-Val-Leu-Phe-Leu-Asn-His-Gly-His-Phe-Val-Ala) (peptide)
peptide: LVLFLNHGHFVA

Assays:
[1] = test system: alveolar type II epithelial cells (T2 cells); assay: Inhibition by free cell adhesion peptides of T2 cell adhesion to coated cell adhesion proteins FN, Col I, LN, VN; type: cell-based; details: for Inhibition of adhesion of T2 cells to FN, Col I, LN and VN by free peptide: free peptide 0.25 mg/ml, serum-free, 1 day
Description: Commercially available FN, LN and VN, usually used as cell adhesion proteins at cell culture, were coated to wells at the concentrations of 5 μg/ml, 10 μg/ml and 10 μg/ml, respectively. In case of Col I (collagen type I), Col I at the concentration of 100 μg/ml, dissolved in 1 mM HCl, was poured into a well, left stand still for a while, and then the solution was removed and air-drying was conducted, and rinsed with the medium, before use. Next, 6×10^5 cells/ml of alveolar type II epithelial cells (T2 cells) suspended in the serum-free DMEM medium was seeded by 100 μl each on a 96-well to which the extracellular matrix was coated, and cultured in a CO2 incubator at 37° C. for 1 day. After the culture was finished, the cells were fixed with 100 μl of methanol for 5 minutes, and stained for 30 minutes with 50 μl of 0.4% crystal violet. Excessive staining was washed with water, then the number of cells adhered to FN, Col I, LN and VN, which had been coated to the wells, was counted based on the absorbance of cytoplasm (A595).
On the other hand, among amino acid sequences of various LN molecules, the sequences that induce cell adhesion are known to be present. […] Then, the number of cells was counted in accordance with the method described above.

[2] = test system: alveolar type II epithelial cells (T2 cells); assay: Binding strength (affinity) of immobilized LN peptides to T2 cells relative to immobilized FIB-1 (mixed immobilization, free FIB-1 competition); type: cell-based; set-up: key to Binding strength to T2 cells, Comprehensive evaluation: AA: extremely strongly binding/adhering; A: strongly binding/adhering; B: intermediately binding/adhering (as the same degree as FIB-1 peptide); C: more weakly binding/adhering than FIB-1 peptide; details: for Binding strength to T2 cells, Comprehensive evaluation: classification relative to FIB-1 peptide; for Binding strength to T2 cells, Ratio to FIB-1: inverse of mixing ratio at transitional midpoint, MMAC-coated well; for Binding strength to T2 cells, Ratio to FIB-1 / Mixing ratio at the transitional midpoint: FIB-1 0.25 mg/ml; for Mixing ratio at the transitional midpoint: peptide:FIB-1 co-immobilized, loss of inhibition by free FIB-1
Description: Therefore, the amount of FIB-1 peptide was set at 0.25 mg/ml, and AG73 peptide was mixed therewith, while changing its concentration ratio, from 1/1.250 of FIB-1 in an amount which is 0.20 μg/ml, to ½ of FIB-1 in an amount which is 0.125 mg/ml, and the mixture was immobilized on a well wherein a hydrophobic binding-adsorptive polymer MMAC was coated. The amount of cell adhesion in the case where T2 cells were cultured under a serum-free condition for 1 day on the immobilized peptides is shown in FIG. 9, in comparison with the case where the culture was conducted on the immobilized FIB-1, which was set at 100%.
However, in a case that the ratio of FIB-1:AG73 increased to 1:0.02, because T2 cells already transited to be adherent through the immobilized AG73 peptide, free FIB-1 peptide could no longer inhibit the cell adhesion. […] Likewise, with regard to A3G72 and A4G82 peptides, because the mixing ratio at the transitional midpoint=0.1, their binding strength to T2 cells is 10 times as much as that of FIB-1.
The method used in FIGS. 8 and 9 is extremely effective as a convenient method by which a relative order can be measured concerning to the binding strength (affinity) of cell adhesion peptides and the strength of cell adhesion can be considered quantitatively.
In Table 1, the classification is shown based on the results of the affinity (bonding/adhesion strength) between FIB-1 peptide containing RGD amino acid sequence of FN molecule, a binding site to integrin, and T2 cells: laminin α-chain G-domain peptides are classified into class AA, extremely strong binding/adhesion; class A, strong adhesion; class B, adhesion as the same degree as FIB-1; and class C, binding weaker than the described above.

[3] = test system: alveolar type II epithelial cells (T2 cells); assay: Inhibition of T2 cell adhesion by free peptide different from the immobilized peptide substrate; type: cell-based; details: for Inhibition by free peptide of T2 cell adhesion to immobilized AG73: AG73 (etc.) immobilized; for Inhibition by free peptide of T2 cell adhesion to immobilized FIB-1: FIB-1 immobilized
Description: Results obtained by adding the free peptides different from the immobilized peptides when T2 cells were cultured on the immobilized peptide prepared according to the method in Example 7, were shown in FIG. 8.
When adding the free peptides that were the same as the immobilized peptides in the culture medium, the both (free and immobilized) peptides compete for syndecan of T2 cells and as a result, the cell adhesion is inhibited (see Example 7). So far, four types of syndecans are genetically known. Whether these syndecans are commonly owned or accommodated by each peptide, overlapping only by some degrees, otherwise mutually exclusive, was examined herein.

[4] = test system: alveolar type II epithelial cells (T2 cells); assay: Time course of cell adhesion/spreading of T2 cells on immobilized cell adhesion peptide substrates; type: cell-based
Description: Culture was conducted by using the cell adhesion peptides immobilized on a well and T2 cells, for 1-24 hours according to the method in Example 8.
As cell adhesion peptides, AG73 was used in B, E and M, FIB-1 was used in C, L and O, A3G72 was used in F, A4G82 was used in G and N, A5G71 was used in H, A5G77 was used in I, hA3G75 was used in J, and hA3G83 was used in K; FN was used as a standard substance in A and D.

[5] = test system: alveolar type II epithelial cells (T2 cells); assay: Static and forced stretching culture of T2 cells on MMAC-coated silicone wells with immobilized proteins or peptides; type: cell-based; details: for Reorientation of T2 cells under forced stretching: 1 day static, 1 day stretching (1dC-1dS), 25 percent, 15 times per minute; for Change of type II epithelial cells into a shape like type I epithelial cells: 3 days static, 3 days stretching (3dC-3dS)
Description: A silicone well coated with MMAC was obtained by pouring 0.5 ml of ethanol solution of 50 μg/ml of MMAC (ISP, International Specialty Products, USA) into a silicone well with a groove of 20 mm×20 mm×10 mm, absorbing excess solution, and conducting air-drying.
Into the silicone wells coated by the method described in Example 1, 10 μg/ml of cell adhesion protein solution of fibronectin (FN), laminin-1 (LN), dissolved in 0.1 M triethanolamine buffer solution of pH 8.8, or 0.25 mg/ml of cell adhesion peptide solution of FIB-1, AG73 was poured respectively, and the reaction was conducted for at least several hours at 37° C. to bind and immobilize these proteins or peptides having cell adhesion activity (see Example 6 described later for particulars of immobilization). Subsequently, alveolar type II epithelial cell (T2 cells) suspension was poured, 5×10^4/cm^2 per unit area, and the culture was started in a CO2 culture apparatus.
T2 cells, 2×10^5/cm^2 per unit area, were seeded on the silicone well wherein the cell adhesion proteins or peptides were immobilized, which had been prepared in an almost same manner as that of Example 2, and static culture was conducted for 1 day. After confirming that the seeded cells confluently spread all over the culture face, horizontal cell stretching was forcibly started at the stretching degree of twenty five percents and at the frequency of 15 times per minute, by using cell culture stretching apparatus (Scholar Tec), and the culture was continued one more day. After the culture was finished, photographs of cell adhesion state were taken with a phase contrast microscope (FIG. 2, top 4 rows).
T2 cells, 5×10^4/cm^2 per unit area, were seeded on the silicone well wherein the cell adhesion proteins or peptides were immobilized, which had been prepared in an almost same manner as that of Example 2, and static culture was conducted for 3 days. T2 cells grew in a manner similar to that shown in FIG. 1, 3d (results are not shown because they are overlapping). Then, the cells were subjected to the same stimuli of forced stretching as in Example 1, and the culture was continued one more day. After the culture was finished, photographs of cell adhesion state were taken with a phase contrast microscope (FIG. 2, middle 4 rows) (FN, 3dC-1dS, LN, 3dC-1dS, FIB-1, 3dC-1dS, and AG-73, 3dC-1dS).
Forced stretching culture was conducted for 3 days in an almost same manner as stretching culture of Example 4. After the culture was finished, photographs of cell adhesion state were taken with a phase contrast microscope (FIG. 2, bottom 4 rows) (FN, 3dC-3dS, LN, 3dC-3dS, FIB-1, 3dC-3dS, and AG-73, 3dC-3dS).

[6] = biological target: syndecan present on the cell surface of T2 cells (alveolar type II epithelial cells); assay: T2 cell adhesion to immobilized peptides, competitive inhibition by free peptides (FIGS. 8 and 9)
[7] = biological target: syndecan present on the cell surface of T2 cells (alveolar type II epithelial cells); assay: T2 cell adhesion to FIB-1 and the peptide co-immobilized on MMAC-coated wells, inhibition by free FIB-1 (FIG. 9)

Row | Molecule | Inhibition of adhesion of T2 cells to FN, Col I, LN and VN by free peptide [1] | Binding strength to T2 cells, Comprehensive evaluation [2] | Binding strength to T2 cells, Ratio to FIB-1 [2] | Mixing ratio at the transitional midpoint [2] | Inhibition by free peptide of T2 cell adhesion to immobilized AG73 [3] | Inhibition by free peptide of T2 cell adhesion to immobilized FIB-1 [3] | Cell adhesion/spreading on immobilized peptide ([4]; 6-hour culture) | Binding strength to T2 cells, Ratio to FIB-1 (fold (ratio to FIB-1)) [6] | mixing ratio at the transitional midpoint (peptide to FIB-1) [7] | further results
1 | GNSTISIRAPVY | inhibited adhesion of T2 cells | B | 1-2 | about 1 | inhibited the cell adhesion | could inhibit | delay in spreading but sufficient cell adhesion | – | – | –
2 | KNSFMALYLSKG | inhibited adhesion of T2 cells | B | 2 | about 1 | inhibited the cell adhesion | could inhibit | delay in spreading but sufficient cell adhesion | – | – | –
3 | KPRLQFSLDIQT | inhibited adhesion of T2 cells | A | 10 | 0.1 | inhibited the cell adhesion | – | the cells were spreading | – | – | –
4 | RKRLQVQLSIRT | inhibited adhesion of T2 cells | AA | 100 | 0.01 | inhibited the cell adhesion | inhibited; also recorded: could inhibit | the cells were spreading | – | – | Inhibition of adhesion of T2 cells to cell adhesion proteins by free peptide ([1]; free peptide 0.12 mg/ml): exhibited the inhibitory activity; Cell adhesion/spreading on immobilized peptide ([4]; 24-hour culture): almost all cells had finished spreading; Reorientation of T2 cells under forced stretching [5]: spread in an elongated shape to a direction perpendicular to the direction of forced stretching; Change of type II epithelial cells into a shape like type I epithelial cells [5]: changed into a shape like flat type I epithelial cells
5 | TLFLAHGRLVFM | inhibited adhesion of T2 cells | A | 10 | 0.1 | inhibited the cell adhesion | could inhibit | the cells were spreading | – | – | Cell adhesion/spreading on immobilized peptide ([4]; 24-hour culture): almost all cells had finished spreading
6 | fibronectin [FN] | – | – | – | – | – | – | – | – | – | Reorientation of T2 cells under forced stretching [5]: not very obvious; Change of type II epithelial cells into a shape like type I epithelial cells [5]: less observed
7 | laminin-1 [LN] | – | – | – | – | – | – | – | – | – | Reorientation of T2 cells under forced stretching [5]: not very obvious; Change of type II epithelial cells into a shape like type I epithelial cells [5]: changed into a shape like flat type I epithelial cells
8 | B1 | – | – | – | – | – | – | – | 10 | 0.1 | –
9 | B2 | – | – | – | – | – | – | – | < 1 | – | –
10 | B3 | – | – | – | – | – | – | – | 10 | 0.1 | –
11 | B4 | – | – | – | – | – | – | – | 2 | 1 | –
12 | B5 | – | – | – | – | – | – | – | – | 1 | –
13 | B6 | – | – | – | – | – | – | – | – | 1 | –
